Consider six compounds from patent US20150250892A1, “BIODEGRADABLE POLYMERIC BUFFERS” (Northeastern University, priority 2012, published 2015).

In one data set the test system is SKOV3 cells. The data set can be described thus: Cytotoxicity evaluation of drug loaded HA nanoparticles on ovarian cancer cells. Particulars: free drug. The class given is cell-based. The text has this: 9) Cytotoxicity Evaluation of Drug Loaded HA Nanoparticles on Ovarian Cancer Cells: […]
For data set [1] the following is noted: of the free drug; cited from earlier work.
The subject of data set [2] is MDA-MB-231 breast cancer cell lines. The data set is described as follows: In vitro cell uptake of free doxorubicin (DOX) and DOX loaded HA polymers. The following applies: 20 μM, 1 h incubation, fluorescence microscopy. The class given is cell-based. Here is the method: In order to determine the pH altering effects of the hyaluronic acid-lipid modified polymers and cellular trafficking of drugs, a model fluorescent drug, doxorubicin, was encapsulated into the unmodified and modified HA polymers and tested on MDA-MB-231 breast cancer cell lines.
After 1 h of incubation, the cells were washed thrice with PBS and the uptake of DOX in the cells was observed using a fluorescence microscope.

[3] abbreviates: Homo sapiens, SK-OV-3, 48 hour timepoint.

Broadly, the IC50 is the concentration needed to halve the response being measured. Lower therefore signals inhibition by little substance. In the data set with SKOV3 cells (setting [3]), `CC(=O)O[C@H]1C(=O)[C@@]2(C)[C@H]([C@H](OC(=O)c3ccccc3)[C@]3(O)C[C@H](OC(=O)[C@H](O)[C@@H](NC(=O)c4ccccc4)c4ccccc4)C(C)=C1C3(C)C)[C@]1(OC(C)=O)CO[C@@H]1C[C@@H]2O` [Paclitaxel] gave a 50% inhibitory concentration (IC50) of 0.0101 µM.

What is called logP is a log measure of how a compound divides between an organic and an aqueous phase. In turn, `CC(=O)[C@]1(O)Cc2c(O)c3c(c(O)c2[C@@H](O[C@H]2C[C@H](N)[C@H](O)[C@H](C)O2)C1)C(=O)c1ccccc1C3=O` [Idarubicin] registered an IC50 with SKOV3 cells (setting [3]) of 3.82 µM. Besides, the lipophilicity (logP) in data set [1] is reported as 0.2.

`CC[C@@]1(O)C(=O)OCc2c1cc1n(c2=O)Cc2cc3ccccc3nc2-1` [Camptothecin] returned a half-maximal inhibitory concentration (IC50) in the data set on SKOV3 cells (setting [3]) of 0.82 µM.

`COc1cccc2c1C(=O)c1c(O)c3c(c(O)c1C2=O)C[C@@](O)(C(=O)CO)C[C@@H]3O[C@H]1C[C@H](N)[C@H](O)[C@H](C)O1` [Doxorubicin]: the “uptake of DOX in the nucleus” value in data set [2] was “much lower in the nucleus”. This compound gave a half-inhibitory concentration (IC50) with SKOV3 cells (48 hour timepoint) of 5.78 µM. In addition, the logP in data set [1] is recorded as −0.5.

As to `COc1cc([C@@H]2c3cc4c(cc3[C@@H](O[C@@H]3O[C@@H]5CO[C@@H](C)O[C@H]5[C@H](O)[C@H]3O)[C@H]3COC(=O)[C@H]23)OCO4)cc(OC)c1O` [Etoposide], the half-maximal inhibitory concentration (IC50) in the data set with SKOV3 cells (setting [3]) is 4.58 µM.

Compound `CC[C@@]1(O)C(=O)OCc2c1cc1n(c2=O)Cc2cc3c(CN(C)C)c(O)ccc3nc2-1` [Topotecan] displayed an IC50 in the data set on SKOV3 cells (setting [3]) of 0.22 µM. In addition, the lipophilicity (logP) in data set [1] is 0.8.
